Results as given in patent US7981926B2, “Fluorotaxoids” (Research Foundation of State University of New York, priority 2005, dated 2011).

Experiments:
[1] = test system: MCF7-R (mammary carcinoma cells 250-fold resistant to paclitaxel); assay: Tumor growth inhibitory activity (cytotoxicity), SRB method of Skehan et al, MCF7-R; assay type: cell-based, human; conditions: for IC50: Homo sapiens, MCF7R, drug-resistant cell line, 72 h drug exposure, SRB, mean of at least three separate experiments, read-out: IC50 MCF7-R (breast); for R/S (resistance factor): ratio of cytotoxicity against drug-resistant MCF7-R (R) to drug-sensitive MCF7 (S)
From the text: (§1) The results were obtained according to the methods of Skehan et al (See Skehan et al., J. Nat. Cancer Inst., 82, 1107 (1990)), as more fully described in the Examples. The resistance factor (R/S) shown in the table is a measure of the degree of resistance of a cell line against a taxoid compound. The resistance factor is a ratio of the cytoxicity of a taxoid compound against a drug-resistant cell line (R) as compared to its cytoxicity against a drug-sensitive cell line (S).
(§2) In the tables, lower numbers indicate higher potency (or greater activity). Paclitaxel was used as the standard for comparison. The data represent the mean values of at least three separate experiments.
(§3) Assessment of cell growth inhibition was determined according to the methods of Skehan et al (See Skehan et al., J. Nat. Cancer Inst., 82, 1107 (1990)). Briefly, cells were plated between 400 and 1200 cells/well in 96 well plates and incubated at 37° C. for 15-18 h prior to drug addition to allow attachment of cells. Compounds tested were solubilized in 100% DMSO and further diluted in RPMI-1640 containing 10 mM HEPES. Each cell line was treated with 10 concentrations of compounds (5 log range). After a 72 h incubation, 100 μL of ice-cold 50% TCA was added to each well and incubated for 1 h at 4° C. Plates were then washed 5 times with tap water to remove TCA, low-molecular-weight metabolites and serum proteins. Sulforhodamine B (SRB) (0.4%, 50 μL) was added to each well. Following a 5 minute incubation at room temperature, plates were rinsed 5 times with 0.1% acetic acid and air dried. Bound dye was solubilized with 10 mM Tris Base (pH 10.5) for 5 min on a gyratory shaker. Optical density was measured at 570 nm.
(§4) Data were fit with the Sigmoid-Emax concentration-effect model with non-linear regression, weighted by the reciprocal of the square of the predicted response (see Holford, N. H. G.; Scheiner, L. B., “Understanding the dose-effect relationship: Clinical applications of pharmaco-kinetic-pharmacodynamic models,” Clin. Pharmacokin., 6, 429-453 (1981)). The fitting software was developed by the Roswell Park Cancer Institute with Microsoft FORTRAN, and uses the Marquardt algorithm (see Marquardt, D. W., “An algorithm for least squares estimation of nonlinear parameters,” J. Soc. Ind. Appl. Math., 11, 431-441 (1963)) as adopted by Nash for the non-linear regression (see Nash, J. C., “Compact numerical method for computers: Linear algebra and function minimization,” John Wiley & Sons, New York, 1979).

[2] = test system: MCF7 (mammary carcinoma); assay: Tumor growth inhibitory activity (cytotoxicity), SRB method of Skehan et al, MCF7; assay type: cell-based, human; conditions: Homo sapiens, MCF7; 72 h drug exposure; SRB; mean of at least three separate experiments; read-out: IC50 MCF7 (breast)
From the text: as §1, §2, §3, §4

SMILES | IC50 [1] | R/S (resistance factor) [1] | melting point | IC50 [2]
COC(=O)O[C@H]1C(=O)[C@@]2(C)C([C@H](OC(=O)c3ccccc3)[C@]3(O)C[C@H](OC(=O)[C@H](O)[C@H](C=C(F)F)NC(=O)OC(C)(C)C)C(C)=C1C3(C)C)[C@]1(OC(C)=O)CO[C@@H]1C[C@@H]2O (some centres unmarked) [SB-T-12855, 3′-Dephenyl-3′-(2,2-difluorovinyl)-10-methoxycarbonyldocetaxel] | 1.29 nM | 9.2 | 144 to 148 °C | 0.14 nM
CC(=O)O[C@H]1C(=O)[C@@]2(C)C([C@H](OC(=O)c3ccccc3)[C@]3(O)C[C@H](OC(=O)[C@H](O)[C@H](C=C(F)F)NC(=O)OC(C)(C)C)C(C)=C1C3(C)C)[C@]1(OC(C)=O)CO[C@@H]1C[C@@H]2O (some centres unmarked) [SB-T-12851, 10-Acetyl-3′-dephenyl-3′-(2,2-difluorovinyl)docetaxel] | 0.95 nM | 9.6 | 155 to 160 °C | 0.099 nM
